According to US20170027896A1, “METHODS AND COMPOSITIONS FOR THE TREATMENT OF VASCULAR MALFORMATION” (IFOM - FONDAZIONE ISTITUTO FIRC DI ONCOLOGIA MOLECOLARE, priority 2014, published 2017):
Entries after “also recorded” stand apart in the source; their conditions may differ.

What was measured:
[1] = test system: CCM3-knockout endothelial cell line; experiment: Immunostaining of CCM3-knockout endothelial cell line; type: cell-based, mouse
Procedure: (§1) In some experiments, endothelial cell lines from the lungs of CCM3-flox/flox mice (8-10 weeks old) were immortalized in culture through retroviral expression of polyoma middle T gene^60. […] These cells were then maintained in culture for up to 25 passages without detectable changes in the effects of this CCM3 ablation.
(§2) Drugs were added to confluent cells for 48 h before the indicated assays. The final concentrations used were: […] (all from Sigma-Aldrich). As all of these were dissolved in DMSO, control treatment (vehicle) was 0.1% DMSO final concentration, as for drug treatment.
Cells cultured in vitro were fixed and stained as described previously^46.
The following antibodies were used: anti-Pecam (hamster; MAB1398Z, Millipore); anti-b-galactosidase (chicken; ab9361, Abcam); anti-VE-cadherin (rat monoclonal; 550548, BD Biosciences); anti-VE-cadherin (goat; sc-6458, Santa Cruz); anti-active-b-catenin (mouse monoclonal clone 8E7) dephosphorylated on Ser37 and Thr41, Millipore); anti-total-b-catenin (mouse monoclonal; Cell Signaling); anti-S100a4 (rabbit; 07-2274, Millipore); anti-Klf4 (goat; AF3158, R&D); anti-CD44 (rat; 553131, BD Biosciences); anti-ID1 (rabbit; sc-488, Santa Cruz); anti-aSMA (mouse monoclonal; F3777, Sigma); anti-GFP (rabbit; A-6455, Invitrogen); anti-podocalyxin (goat; AF1556, R&D); anti-phospho-histone H3 (rabbit; ab51776, Millipore); anti-CCM3 (rabbit; Eurogentec); anti-p-Smad1 (rabbit; 9516, Cell Signaling); anti-endomucin (rabbit; sc-65495, Santa Cruz); anti-α-tubulin (mouse monoclonal; T9026, Sigma).

[2] = test system: CCM3-knockout brain endothelial cells in primary culture; experiment: rtPCR of b-catenin target genes in primary cultures of CCM3-knockout brain endothelial cells; type: cell-based, mouse; design: dose or concentration left out as unconfirmed; details: 48 h
Source text: Endothelial cells from the CCM3-flox/flox mice (8-10 weeks old) were isolated from the brain as previously described^13. Recombination of the floxed CCM3 gene was induced by treating the cells at culture day 1 with the AdenoCre viral vector, as previously described^59. The control endothelial cells were an aliquot of the same endothelial cell preparation treated with AdenoGFP, instead of AdenoCre. The cells were then maintained in culture for up to a further 7 days before analysis, as described in the main text. Drug treatments were for 48 h before the processing of the cells. Drugs were added to confluent cells for 48 h before the indicated assays. The final concentrations used were: […] (all from Sigma-Aldrich). As all of these were dissolved in DMSO, control treatment (vehicle) was 0.1% DMSO final concentration, as for drug treatment. RNA extraction was performed with RNeasy kits (74106; Promega). The RNA (1 μg) was reverse transcribed with random hexamers (High Capacity cDNA Archive kits; Applied Biosystems). […] For each sample, the expression levels were determined with the comparative threshold cycle (Ct) method, and normalized to the housekeeping genes encoding 18S and glyceraldehyde-3-phosphate dehydrogenase (GAPDH). […]

[3] = test system: cyclooxygenase; details: reported; cited from earlier work
[4] = test system: CCM3-knockout endothelial cell line; experiment: rtPCR of b-catenin target gene and progenitor/EndMT markers in CCM3-knockout endothelial cell line; type: cell-based, mouse; details: 48 h; 135 mM sulindac sulfide, 125 mM sulindac sulfone, 200 mM silibinin, 250 mM salinomycin
Procedure: as §1, §2
RNA extraction was performed with RNeasy kits (74106; […]). The RNA (1 μg) was reverse transcribed with random hexamers (High Capacity cDNA Archive kits; Applied Biosystems). The cDNA was amplified with TaqMan gene expression assays (Applied Biosystems) using a 7900 HT thermocycler (ABI/Prism). For each sample, the expression levels were determined with the comparative threshold cycle (Ct) method, and normalized to the housekeeping genes encoding 18S and glyceraldehyde-3-phosphate dehydrogenase (GAPDH). For amplification, the following probes (Applied Biosystems) that have been validated to recognize the mouse transcripts in rtPCR were used: Axin2, Nkd1, Lef1, ccnd1, cMyc-Klf4, Ly6a, S100a4, Id1, Cdh2, Acta2, CD44. The probes to identify the CCM3 mRNA transcript were custom designed, as: forward, […] (SEQ ID No. 12); reverse, GCTCTGGCCGCTCAATCA (SEQ ID No. 13); reporter sequence, […] (SEQ ID No. 14).

**Q.** For `CSc1ccc(/C=C2/C(C)=C(CC(=O)O)c3cc(F)ccc32)cc1` [sulindac sulfide, (Z)-5-Fluoro-2-methyl-1-[4-(methylthio)benzylidene]indene-3-acetic acid], which “apical distribution of podocalyxin” value [1] is on record?
**A.** re-establishes the correct apical distribution

**Q.** What about the “VE-cadherin at cell-cell contacts” value ([1]; 48 h) of the same compound?
**A.** more localized to cell-cell contacts

**Q.** What about the “nuclear accumulation of active b-catenin / distribution to adherens junctions” value ([1]; 48 h) of the same compound?
**A.** restored the distribution of active b-catenin to the adherens junctions

**Q.** What about the “overexpression of progenitor/EndMT marker proteins (Klf4, S100a4, Id1, CD44)” value ([1]; 48 h) of the same compound?
**A.** strongly reduced; also recorded: inhibited

**Q.** And the “expression of endogenous b-catenin target genes (Klf4, Ly6a, S100a4, Id1; rtPCR)” value [2]?
**A.** effectively inhibited

**Q.** And the anti-cyclooxygenase activity [3]?
**A.** inhibits

**Q.** What about the “inhibition of transcription of Axin2, Klf4 and S100a4 (rtPCR)” value [4] of the same compound?
**A.** greatest inhibition; also recorded: most effective
